Laboratory results taken from US8476265B2, “Compounds-801” (AstraZeneca AB, priority 2010, dated 2013).

Tests used:
Adrenergic β2 = target: T1, Adrenergic β2 (Homo sapiens, UniProt P07550); assay: Adrenergic β2 mediated cAMP production in H292 cells (AlphaScreen), concentration response; format: cell-based; conditions: for EC50: 60 min, 300 μM rolipram, read-out: β2 pEC50 (converted); for β2 Intrinsic Activity: fraction relative to the maximum activity determined for formoterol
T1 construct: Adherent H292 cells are removed from tissue culture flasks by treatment with Accutase™ cell detachment solution; endogenous in cells; host or cells: H292 cells
Method in brief: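 H292 cells seeded overnight, pretreated 10 min with rolipram (300 μM final), then exposed to compounds 60 min at room temperature in HBSS/10 mM HEPES pH 7.4/5 mM glucose, 1% DMSO. Lysate cAMP quantified by AlphaScreen against a standard curve; four-parameter fit gives pEC50 and intrinsic activity relative to formoterol maximum.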

[1] = target: T2, human muscarinic acetylcholine M3 receptor (Homo sapiens, UniProt P20309); assay: Muscarinic 3 receptor binding assay ([3H]NMS competition, SPA), pIC50; conditions: [3H]NMS 0.1 nM, CHO-K1 cell membranes expressing human M3 receptor
T2 construct: expressed in transfected cells; host or cells: CHO-K1 (Chinese Hamster Ovary) cell membranes
Method in brief: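 Competition of [3H]NMS (0.1 nM, quarter Kd) binding to CHO-K1 membranes expressing human M3, SPA format, in 20 mM HEPES pH 7.4, 5 mM MgCl2, 0.1% BSA, 1% DMSO. Incubated 16 h at room temperature; non-specific binding with 1 μM atropine; pIC50 from specific binding.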

T1 sequence (P07550 whole entry): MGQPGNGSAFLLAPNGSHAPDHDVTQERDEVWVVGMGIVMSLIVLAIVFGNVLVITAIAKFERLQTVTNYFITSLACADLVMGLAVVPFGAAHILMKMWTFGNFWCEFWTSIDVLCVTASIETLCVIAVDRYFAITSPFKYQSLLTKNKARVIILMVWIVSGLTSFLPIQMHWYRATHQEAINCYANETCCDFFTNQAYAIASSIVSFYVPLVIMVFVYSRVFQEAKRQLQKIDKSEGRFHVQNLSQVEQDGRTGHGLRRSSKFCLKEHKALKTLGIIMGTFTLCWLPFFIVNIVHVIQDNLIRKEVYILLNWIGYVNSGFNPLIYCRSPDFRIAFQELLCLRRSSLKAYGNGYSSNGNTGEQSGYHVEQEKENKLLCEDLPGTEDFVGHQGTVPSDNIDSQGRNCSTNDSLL
T2 sequence (P20309 whole entry): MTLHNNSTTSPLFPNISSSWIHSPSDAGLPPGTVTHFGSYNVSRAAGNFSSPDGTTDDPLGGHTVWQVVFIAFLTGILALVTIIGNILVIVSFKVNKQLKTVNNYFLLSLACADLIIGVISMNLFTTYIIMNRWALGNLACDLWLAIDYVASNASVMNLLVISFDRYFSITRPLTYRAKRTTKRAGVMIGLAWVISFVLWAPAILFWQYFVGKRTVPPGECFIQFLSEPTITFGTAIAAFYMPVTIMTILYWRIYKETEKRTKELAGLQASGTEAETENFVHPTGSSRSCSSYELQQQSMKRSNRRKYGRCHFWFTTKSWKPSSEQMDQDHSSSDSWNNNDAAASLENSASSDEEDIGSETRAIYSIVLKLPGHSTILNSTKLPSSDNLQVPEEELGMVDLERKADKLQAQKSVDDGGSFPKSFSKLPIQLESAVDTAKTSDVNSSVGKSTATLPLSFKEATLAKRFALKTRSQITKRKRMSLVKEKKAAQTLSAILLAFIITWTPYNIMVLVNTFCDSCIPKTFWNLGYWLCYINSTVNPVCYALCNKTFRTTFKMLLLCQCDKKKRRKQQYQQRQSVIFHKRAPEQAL

| SMILES | EC50 (Adrenergic β2) [nM] | β2 Intrinsic Activity (Adrenergic β2) | IC50 [1] [nM] |
| --- | --- | --- | --- |
| CC(C)c1nc(C(=O)N2CCOC3(CCN(CCOc4cccc(CCOCCC(=O)N(CCNCCc5ccc(O)c6c5OCC(=O)N6)C5CCCCC5)c4)CC3)C2)cs1 [Example 53, N-Cyclohexyl-N-(2-(2-(5-hydroxy-3-oxo-3,4-dihydro-2H-benzo[b][1,4]oxazin-8-yl)ethylamino)ethyl)-3-(3-(2-(4-(2-isopropylthiazole-4-carbonyl)-1-oxa-4,9-diazaspiro[5.5]undecan-9-yl)ethoxy)phenethoxy)propanamide ditrifluoroacetate] | 20 | 1.0 | 7.94 |
| CC(C)c1nc(C(=O)N2CCOC3(CCN(Cc4cccc(SCCOCCC(=O)N(C)CCNCCc5ccc(O)c6[nH]c(=O)sc56)c4)CC3)C2)cs1 [Example 55, N-(2-(2-(4-Hydroxy-2-oxo-2,3-dihydrobenzo[d]thiazol-7-yl)ethylamino)ethyl)-3-(2-(3-((4-(2-isopropylthiazole-4-carbonyl)-1-oxa-4,9-diazaspiro[5.5]undecan-9-yl)methyl)phenylthio)ethoxy)-N-methylpropanamide ditrifluoroacetate] | 100 | 0.6 | 0.126 |
| CC[C@@H](C)N(CCNCCc1ccc(O)c2c1OCC(=O)N2)C(=O)CCOCCc1cccc(CCN2CCC3(CC2)CN(C(=O)c2csc(C(C)C)n2)CCO3)c1 [Example 37, (R)—N-sec-Butyl-N-(2-(2-(5-hydroxy-3-oxo-3,4-dihydro-2H-benzo[b][1,4]oxazin-8-yl)ethylamino)ethyl)-3-(3-(2-(4-(2-isopropylthiazole-4-carbonyl)-1-oxa-4,9-diazaspiro[5.5]undecan-9-yl)ethyl)phenethoxy)propanamide ditrifluoroacetate] | 10 | 0.9 | 0.794 |
| CCN(CCNCCc1ccc(O)c2[nH]c(=O)sc12)C(=O)CCOCCc1csc(CN2CCC3(CC2)CN(C(=O)c2csc(C(C)C)n2)CCO3)c1 [Example 48, N-Ethyl-N-(2-(2-(4-hydroxy-2-oxo-2,3-dihydrobenzo[d]thiazol-7-yl)ethylamino)ethyl)-3-(2-(5-((4-(2-isopropylthiazole-4-carbonyl)-1-oxa-4,9-diazaspiro[5.5]undecan-9-yl)methyl)thiophen-3-yl)ethoxy)propanamide ditrifluoroacetate] | 200 | 0.9 | 0.2 |
| CC(C)c1nc(C(=O)N2CCOC3(CCN(Cc4cccc(CCOCCC(=O)N(CCNCCc5ccc(O)c6c5OCC(=O)N6)Cc5ccccc5)c4F)CC3)C2)cs1 [Example 8, N-Benzyl-3-(2-fluoro-3-((4-(2-isopropylthiazole-4-carbonyl)-1-oxa-4,9-diazaspiro[5.5]undecan-9-yl)methyl)phenethoxy)-N-(2-(2-(5-hydroxy-3-oxo-3,4-dihydro-2H-benzo[b][1,4]oxazin-8-yl)ethylamino)ethyl)propanamide ditrifluoroacetate] | 39.8 | 1.1 | 0.251 |
| CCc1nc(C(=O)N2CCOC3(CCN(Cc4cccc(CCOCCC(=O)N(CCNCCc5ccc(O)c6c5OCC(=O)N6)C5CCCCC5)c4)CC3)C2)cs1 [Example 95, N-Cyclohexyl-3-(3-((4-(2-ethylthiazole-4-carbonyl)-1-oxa-4,9-diazaspiro[5.5]undecan-9-yl)methyl)phenethoxy)-N-(2-(2-(5-hydroxy-3-oxo-3,4-dihydro-2H-benzo[b][1,4]oxazin-8-yl)ethylamino)ethyl)propanamide] | 100 | 1.0 | 0.126 |
| CC(C)c1nc(C(=O)N2CCOC3(CCN(Cc4cccc(CCOCCC(=O)N(CCNCCc5ccc(O)c6c5OCC(=O)N6)C(C)C)c4F)CC3)C2)cs1 [Example 16, 3-(2-Fluoro-3-((4-(2-isopropylthiazole-4-carbonyl)-1-oxa-4,9-diazaspiro[5.5]undecan-9-yl)methyl)phenethoxy)-N-(2-(2-(5-hydroxy-3-oxo-3,4-dihydro-2H-benzo[b][1,4]oxazin-8-yl)ethylamino)ethyl)-N-isopropylpropanamide ditrifluoroacetate] | 200 | 0.8 | 0.251 |
| CC(C)c1nc(C(=O)N2CCOC3(CCN(Cc4cccc(CCOCCC(=O)N(CCNCCc5ccc(O)c6c5OCC(=O)N6)CC(F)(F)F)c4F)CC3)C2)cs1 [Example 79, ditrifluoroacetate] | 126 | 1.0 | 0.126 |
| CCN(CCNCCc1ccc(O)c2[nH]c(=O)sc12)C(=O)CCOCCc1ccc(CCN2CCC3(CC2)CN(C(=O)c2csc(C(C)C)n2)CCO3)cc1 [Example 1, N-Ethyl-N-(2-(2-(4-hydroxy-2-oxo-2,3-dihydrobenzo[d]thiazol-7-yl)ethylamino)ethyl)-3-(4-(2-(4-(2-isopropylthiazole-4-carbonyl)-1-oxa-4,9-diazaspiro[5.5]undecan-9-yl)ethyl)phenethoxy)propanamide ditrifluoroacetate] | 31.6 | 0.7 | 2 |

Further molecules by falling IC50 [1], results first:

| EC50 (Adrenergic β2) [nM] | β2 Intrinsic Activity (Adrenergic β2) | IC50 [1] [nM] | SMILES |
| --- | --- | --- | --- |
| 200 | 1.0 | 5.01 | Cc1cc(C(=O)N2CCOC3(CCN(Cc4cccc(CCOCCC(=O)N(CCNCCc5ccc(O)c6c5OCC(=O)N6)C5CCCCC5)c4)CC3)C2)sc1C [Example 89, N-Cyclohexyl-3-(3-((4-(4,5-dimethylthiophene-2-carbonyl)-1-oxa-4,9-diazaspiro[5.5]undecan-9-yl)methyl)phenethoxy)-N-(2-(2-(5-hydroxy-3-oxo-3,4-dihydro-2H-benzo[b][1,4]oxazin-8-yl)ethylamino)ethyl)propanamide] |
| 20 | 1.0 | 2.51 | Cc1c(CCOCCC(=O)N(CCNCCc2ccc(O)c3c2OCC(=O)N3)C2CCCC2)cccc1CN1CCC2(CC1)CN(C(=O)c1csc(C(C)C)n1)CCO2 [Example 64, N-Cyclopentyl-N-(2-(2-(5-hydroxy-3-oxo-3,4-dihydro-2H-benzo[b][1,4]oxazin-8-yl)ethylamino)ethyl)-3-(3-((4-(2-isopropylthiazole-4-carbonyl)-1-oxa-4,9-diazaspiro[5.5]undecan-9-yl)methyl)-2-methylphenethoxy)propanamide ditrifluoroacetate] |
| 39.8 | 0.9 | 1.26 | CCCN(CCNCCc1ccc(O)c2c1OCC(=O)N2)C(=O)CCOCCc1cccc(CN2CCC3(CC2)CN(C(=O)c2csc(C(C)C)n2)CCO3)c1Cl [Example 29, 3-(2-Chloro-3-((4-(2-isopropylthiazole-4-carbonyl)-1-oxa-4,9-diazaspiro[5.5]undecan-9-yl)methyl)phenethoxy)-N-(2-(2-(5-hydroxy-3-oxo-3,4-dihydro-2H-benzo[b][1,4]oxazin-8-yl)ethylamino)ethyl)-N-propylpropanamide ditrifluoroacetate] |
| 158 | 1.0 | 1.26 | CC(C)c1cccc(C(=O)N2CCOC3(CCN(Cc4cccc(CCOCCC(=O)N(CCNCCc5ccc(O)c6c5OCC(=O)N6)C5CCCCC5)c4)CC3)C2)n1 [Example 97, N-Cyclohexyl-N-(2-(2-(5-hydroxy-3-oxo-3,4-dihydro-2H-benzo[b][1,4]oxazin-8-yl)ethylamino)ethyl)-3-(3-((4-(6-isopropylpicolinoyl)-1-oxa-4,9-diazaspiro[5.5]undecan-9-yl)methyl)phenethoxy)propanamide] |
| 20 | 1.0 | 0.398 | CCCC[C@@H](C)N(CCNCCc1ccc(O)c2c1OCC(=O)N2)C(=O)CCOCCc1cccc(CN2CCC3(CC2)CN(C(=O)c2csc(C(C)C)n2)CCO3)c1F [Example 18, (R)-3-(2-Fluoro-3-((4-(2-isopropylthiazole-4-carbonyl)-1-oxa-4,9-diazaspiro[5.5]undecan-9-yl)methyl)phenethoxy)-N-(hexan-2-yl)-N-(2-(2-(5-hydroxy-3-oxo-3,4-dihydro-2H-benzo[b][1,4]oxazin-8-yl)ethylamino)ethyl)propanamide ditrifluoroacetate] |
| 158 | 1.0 | 0.2 | O=C1COc2c(CCNCCN(C(=O)CCOCCc3cccc(CN4CCC5(CC4)CN(C(=O)c4csc(C6CCC6)n4)CCO5)c3)C3CCCCC3)ccc(O)c2N1 [Example 87, 3-(3-((4-(2-Cyclobutylthiazole-4-carbonyl)-1-oxa-4,9-diazaspiro[5.5]undecan-9-yl)methyl)phenethoxy)-N-cyclohexyl-N-(2-(2-(5-hydroxy-3-oxo-3,4-dihydro-2H-benzo[b][1,4]oxazin-8-yl)ethylamino)ethyl)propanamide] |
| 39.8 | 0.8 | 0.158 | CCN(CCNCCc1ccc(O)c2c1OCC(=O)N2)C(=O)CCOCCc1cccc(CN2CCC3(CC2)CN(C(=O)c2csc(C4CCCC4)n2)CCO3)c1F [Example 25, 3-(3-((4-(2-Cyclopentylthiazole-4-carbonyl)-1-oxa-4,9-diazaspiro[5.5]undecan-9-yl)methyl)-2-fluorophenethoxy)-N-ethyl-N-(2-(2-(5-hydroxy-3-oxo-3,4-dihydro-2H-benzo[b][1,4]oxazin-8-yl)ethylamino)ethyl)propanamide ditrifluoroacetate] |
